US20120165403A1, “METHODS OF INHIBITING THE ACTIVITY OF HSP90 AND/OR ARYL HYDROCARBON RECEPTOR” (UNIVERSITY OF ROCHESTER, priority 2004, published 2012)

What was measured:
[1] = test system: hsp90; assay: Sucrose density gradient sedimentation of hsp90 in Hepa cytosol; type: biochemical, mouse; conditions: 2 h, 200 μM EGCG or 10 nM TCDD
Protocol: Competitive binding of EGCG was analyzed by velocity sedimentation on sucrose gradients in a vertical tube rotor (Tsui et al., Can. J. Physiol. Pharmacol 59:927-931 (1981); Jensen et al., Toxicol. Sci. 64:41-56 (2001), which are hereby incorporated by reference in their entirety). Hepa cytosol (100 μl of 2.5 mg/ml) or BP^rCl cytosol was incubated for two hours at room temperature with either 3 nM ^3H-TCDD, 0.5 nM ^3H-TCDD, or 5 nM ^3H-BNF, in the presence of DMSO, 150-fold excess TCDF, 1 μM 3M4NF, or EGCG. […] For competitive binding assays, fractions were assayed for radioactivity with ScintiVerse (Fisher Scientific, Fair Lawn, N.J.). […] For AhR and hsp90 density analysis, protein contained within an aliquot (200 of each fraction was separated by SDS-PAGE (7.5% acrylamide resolving gel) and transferred to PVDF membranes. Membranes were probed with antibodies recognizing AhR (Biomol) or hsp90 (Stressgen, Victoria, BC Canada). A crude estimate of the sedimentation coefficient for the EGCG shifted AhR complex was calculated by the method of Martin and Ames (Martin et al., J. Biol. Chem. 236:1372-1379 (1961), which is hereby incorporated by reference in its entirety) relative to the ^14C-BSA (4.4S) standard.

[2] = target: T1, AhR (Mus musculus, UniProt P30561); assay: DNA binding of in vitro translated AhR and ARNT in RRL; type: biochemical
T1 construct: made in house; host or cells: TNT rabbit reticulocyte lysate
T1 sequence (P30561 10-805 limits assumed): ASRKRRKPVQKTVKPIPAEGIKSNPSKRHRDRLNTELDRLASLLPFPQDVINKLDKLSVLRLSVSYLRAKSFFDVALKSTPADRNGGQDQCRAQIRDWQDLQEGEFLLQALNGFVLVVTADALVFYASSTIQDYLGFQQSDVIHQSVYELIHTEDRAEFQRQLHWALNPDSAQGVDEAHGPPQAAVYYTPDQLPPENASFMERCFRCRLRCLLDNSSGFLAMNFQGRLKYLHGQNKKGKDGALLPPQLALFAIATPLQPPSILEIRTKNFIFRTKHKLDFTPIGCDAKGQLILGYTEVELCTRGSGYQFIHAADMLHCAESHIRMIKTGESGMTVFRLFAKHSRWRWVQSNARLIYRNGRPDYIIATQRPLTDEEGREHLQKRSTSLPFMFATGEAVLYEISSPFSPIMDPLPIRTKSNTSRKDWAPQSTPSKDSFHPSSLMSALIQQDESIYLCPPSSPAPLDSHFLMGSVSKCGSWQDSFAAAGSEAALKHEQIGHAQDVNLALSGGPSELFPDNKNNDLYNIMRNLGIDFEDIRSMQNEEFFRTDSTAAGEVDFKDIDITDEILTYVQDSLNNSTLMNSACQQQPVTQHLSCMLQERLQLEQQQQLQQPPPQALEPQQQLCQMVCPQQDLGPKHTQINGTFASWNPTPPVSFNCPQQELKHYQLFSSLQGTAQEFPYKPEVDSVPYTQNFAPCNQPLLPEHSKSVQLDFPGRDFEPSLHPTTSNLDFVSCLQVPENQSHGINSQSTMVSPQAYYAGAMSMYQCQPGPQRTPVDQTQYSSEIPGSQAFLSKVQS
Text: The data provided above implicate a model where EGCG inhibits release of hsp90 from the AhR complex. This form of hsp90 appears to maintain its interaction with XAP2 (FIG. 4). However, from the above data, it remains to be determined whether 1) the hsp90-XAP2 complex remains bound to the AhR upon EGCG treatment, 2) EGCG prevents ARNT dimerization, 3) EGCG stabilizes the receptor in a different complex upon additional treatment with TCDD, and 4) if other proteins are present in this complex. Findings from the above investigations add some useful insight into the mechanism of action of EGCG. The mouse AhR used for these studies was in vitro transcribed in rabbit reticulocyte lysate (RRL) and immunoprecipitated using an antibody specific for amino acids 12-31. Although this antibody could precipitate the latent and TCDD-activated AhR complex from RRL, it was incapable of precipitating an EGCG-treated AhR. […] Furthermore, titration of Hepa cytosol into the RRL system restored the ability to immunoprecipitate ^35S-methionine-labeled in vitro transcribed AhR. Similar discrepancies between systems were observed utilizing DNA binding as an endpoint. […] This is in direct contrast to the lack of AhR transformation by EGCG observed in Hepa cytosol (FIG. 7). […] This EGCG-induced DNA binding complex could also be attenuated upon titration of Hepa cytosol into RRL. […]

[3] = target: T2, purified human hsp90 (Homo sapiens, UniProt P07900); assay: Affinity chromatography on EGCG-conjugated Sepharose, purified hsp90; type: binding; conditions: purified hsp90 alone
T2 construct: purchased Stressgen
Protocol: EGCG was conjugated to cyanogen bromide (CNBr)-activated Sepharose (Sigma). EGCG (2.5 mg) was dissolved in 5004 coupling buffer (0.1M NaHCO3, 0.5M NaCl, pH 6.0). CNBr-activated Sepharose was swelled and washed in 1 mM HCl on a sintered glass filter followed by a wash with coupling buffer. CNBr-activated Sepharose beads were added to the EGCG in coupling buffer at a final concentration of 5 mg EGCG/ml of wet gel. The coupling solution containing EGCG and Sepharose was mixed end-over end at 4° C. overnight. Remaining active groups were blocked for 2 h at room temperature in Tris-HCl (0.1M, pH 8). EGCG-conjugated Sepharose was washed with three cycles of alternating pH wash buffers (Buffer 1: 0.1M acetate, 0.5M NaCl, pH4.0; Buffer 2: 0.1M Tris-HCl, 0.5M NaCl, pH 8.0). EGCG-conjugated beads were then equilibrated in binding buffer (0.05M Tris-HCl, 0.15M sodium chloride, pH 7.5). The control unconjugated CNBr-activated Sepharose beads were prepared as above in the absence of EGCG.
For affinity chromatography using histidine-purified XAP2 and purified human hsp90 (Stressgen), 30 μl of unconjugated or EGCG-conjugated Sepharose were incubated for 1 h at room temperature with either 1:4 diluted ^35S-XAP2 in RRL, 30 μl of histidine purified ^35S-XAP2, 0.6 μg of purified hsp90, or 20 μl of histidine purified ^35S-XAP2 in the presence of 0.6 μg of purified hsp90. […]

O=C(O[C@@H]1Cc2c(O)cc(O)cc2O[C@@H]1c1cc(O)c(O)c(O)c1)c1cc(O)c(O)c(O)c1 [EGCG, epigallocatechin gallate]
effect on the sedimentation pattern of hsp90 [1]: dramatically altered the sedimentation pattern of hsp90 | DNA binding of AhR and ARNT, treatment alone [2]: formation of a strong DRE-AhR-ARNT shifted complex | binding of purified hsp90 to EGCG-Sepharose [3]: eluted specifically from EGCG-Sepharose
